Drawing on ChEMBL document CHEMBL6071152, “Design, synthesis, and biological evaluation of oridonin derivatives as novel NLRP3 inflammasome inhibitors for the treatment of acute lung injury” (Eur J Med Chem, 2024), this text covers Kd, inhibition and Activity for 1 compound.

Experiment [1] concerns the target NACHT, LRR and PYD domains-containing protein 3 (Homo sapiens, UniProt Q96P20). The experiment in a line: Binding affinity to NLRP3 (unknown origin) by SPR assay.
In experiment [2] the target is NACHT, LRR and PYD domains-containing protein 3 (Mus musculus) (UniProt Q8R4B8). In words: Inhibition of NLRP3 inflammasome activation in ICR mouse BMDM assessed as inhibition of LPS/ATP-stimulated IL-1 beta expression in cell supernatant treated for 3 hrs with LPS followed by incubation with compound for 1 hr and later stimulated with ATP for 0.5 hrs by western blot analysis. Format: cell-based. The conditions noted are these: dose 0.2-5 µM, time 1.5 hrs.

Experiment [3] shares this target. In words: Inhibition of NLRP3 inflammasome activation in ICR mouse BMDM assessed as inhibition of LPS/ATP-stimulated caspase-1 expression in cell supernatant treated for 3 hrs with LPS followed by incubation with compound for 1 hr and later stimulated with ATP for 0.5 hrs by western blot analysis. The note with it: dose 0.2-5 µM, time 1.5 hrs. Format: cell-based.

The target is the same in experiment [4]. The experiment in a line: Inhibition of NLRP3 inflammasome priming in ICR mouse BMDM assessed as inhibition of pro-caspase-1 protein expression in cell lysate at 0.2 to 5 uM treated for 3 hrs with LPS followed by incubation with compound for 1 hr and later stimulated with ATP for 0.5 hrs by western blot analysis. Type of experiment: subcellular. The note with it: dose 0.2-5 µM, time 1.5 hrs.

For experiment [5] the target is unchanged. In words: Inhibition of NLRP3 inflammasome priming in ICR mouse BMDM assessed as inhibition of pro-IL-1 beta protein expression in cell lysate at 0.2 to 5 uM treated for 3 hrs with LPS followed by incubation with compound for 1 hr and later stimulated with ATP for 0.5 hrs by western blot analysis. The conditions noted are these: dose 0.2-5 µM, time 1.5 hrs. Type of experiment: subcellular.

Experiment [6] shares this target. The experiment in a line: Inhibition of NLRP3 inflammasome priming in ICR mouse BMDM assessed as inhibition of LPS/ATP-stimulated TNF-alpha secretion in cell supernatant at 0.2 to 5 uM treated for 3 hrs with LPS followed by incubation with compound for 1 hr and later stimulated with ATP for 0.5 hrs by ELISA. Type of experiment: cell-based. The conditions noted are these: dose 0.2-5 µM, time 1.5 hrs.

The target is the same in experiment [7]. In words: Inhibition of NLRP3 inflammasome priming in ICR mouse BMDM assessed as inhibition of pro-caspase-1 protein expression in cell lysate at 1 uM treated for 3 hrs with LPS followed by incubation with compound for 1 hr and later stimulated with ATP for 0.5 hrs by western blot analysis. The note with it: time 1.5 hrs. Type of experiment: subcellular.

Experiment [8] shares this target. The experiment in a line: Inhibition of NLRP3 inflammasome priming in ICR mouse BMDM assessed as inhibition of pro-IL-1 beta protein expression in cell lysate at 1 uM treated for 3 hrs with LPS followed by incubation with compound for 1 hr and later stimulated with ATP for 0.5 hrs by western blot analysis. Format: subcellular. The note with it: time 1.5 hrs.
Experiment [9] shares this target. The experiment in a line: Inhibition of NLRP3 inflammasome activation in ICR mouse BMDM assessed as inhibition of LPS/nigericin-stimulated caspase-1 expression in cell supernatant at 1 uM treated for 3 hrs with LPS followed by incubation with compound for 1 hr and later stimulated with nigericin for 0.5 hrs by western blot analysis. Type of experiment: cell-based. The note with it: time 1.5 hrs.

Experiment [10] shares this target. The experiment in a line: Inhibition of NLRP3 inflammasome priming in ICR mouse BMDM assessed as inhibition of pro-caspase-1 protein expression in cell lysate at 1 uM treated for 3 hrs with LPS followed by incubation with compound for 1 hr and later stimulated with MSU for 4 hrs by western blot analysis. The note with it: time 5.0 hrs. Type of experiment: subcellular.

Experiment [11] concerns the target T1, Interferon-inducible protein AIM2 (Mus musculus) (UniProt Q91VJ1).
T1 sequence (whole entry): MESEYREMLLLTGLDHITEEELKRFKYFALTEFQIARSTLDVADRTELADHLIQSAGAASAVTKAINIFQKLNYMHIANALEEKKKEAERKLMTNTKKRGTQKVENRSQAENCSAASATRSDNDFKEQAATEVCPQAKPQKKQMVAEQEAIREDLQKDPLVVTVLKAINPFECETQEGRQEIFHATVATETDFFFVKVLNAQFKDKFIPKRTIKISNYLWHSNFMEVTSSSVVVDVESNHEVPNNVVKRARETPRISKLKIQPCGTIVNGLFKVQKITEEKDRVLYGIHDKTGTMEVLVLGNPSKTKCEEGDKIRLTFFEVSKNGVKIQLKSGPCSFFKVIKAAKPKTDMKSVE
The experiment in a line: Inhibition of AIM2 inflammasome activation in ICR mouse BMDM assessed as inhibition of poly(dA:dT)-stimulated caspase-1 expression in cell supernatant at 1 uM treated for 3 hrs with LPS followed by incubation with compound for 1 hr and later cells transfected with poly(dA:dT) for 4 hrs by western blot analysis. Format: cell-based. The note with it: time 5.0 hrs.

Experiment [12] has as its target NACHT, LRR and PYD domains-containing protein 3 (Mus musculus) (UniProt Q8R4B8). In words: Inhibition of NLRP3 inflammasome priming in ICR mouse BMDM assessed as inhibition of pro-IL-1 beta expression in cell supernatant at 0.2 to 5 uM pretreated with compound for 1 hr followed by stimulation with LPS for 3 hrs and later incubated with ATP for 30 mins by western blot analysis. Type of experiment: cell-based. The note with it: dose 0.2-5 µM, time 4.5 hrs.

Experiment [13] shares this target. In words: Inhibition of NLRP3 inflammasome priming in ICR mouse BMDM assessed as inhibition of pro-caspase-1 expression in cell supernatant at 0.2 to 5 uM pretreated with compound for 1 hr followed by stimulation with LPS for 3 hrs and later incubated with ATP for 30 mins by western blot analysis. Format: cell-based. The conditions noted are these: dose 0.2-5 µM, time 4.5 hrs.

Experiment [14] concerns Mus musculus. The experiment in a line: Anti-inflammatory activity against LPS-stimulated acute lung injury C57BL/6 mouse model assessed as active animal at 10 mg/kg, ip treated for 3 days and on third day administered with LPS at 30 mins post-compound challenge. Format: functional, organism-based. The conditions noted are these: time 3.0 day.
The test system of experiment [15] is Mus musculus. The experiment in a line: Anti-inflammatory activity against LPS-stimulated acute lung injury C57BL/6 mouse model assessed as decrease in IL-6 level in BALF at 0.1 to 1 mg/kg, ip treated for 3 days and on third day administered with LPS at 30 mins post-compound challenge and measured after 12 hrs by ELISA. Format: functional, organism-based. The conditions noted are these: dose 0.1-1 mg/kg, time 3.5 day.

For experiment [16], the system named is Mus musculus. The experiment in a line: Anti-inflammatory activity against LPS-stimulated acute lung injury C57BL/6 mouse model assessed as decrease in IL-18 mRNA expression in right lung at 0.1 to 1 mg/kg, ip treated for 3 days and on third day administered with LPS at 30 mins post-compound challenge and measured after 12 hrs by RT-qPCR analysis. Format: functional, organism-based. The note with it: dose 0.1-1 mg/kg, time 3.5 day.

In experiment [17] the test system is Mus musculus. The experiment in a line: Anti-inflammatory activity against LPS-stimulated acute lung injury C57BL/6 mouse model assessed as decrease in inflammatory cell infiltration in right lung at 1 to 10 mg/kg, ip treated for 3 days and on third day administered with LPS at 30 mins post-compound challenge and measured after 12 hrs by Hematoxylin-Eosin staining analysis. Type of experiment: functional, organism-based. The conditions noted are these: dose 1-10 mg/kg, time 3.5 day.

For experiment [18], the system named is Mus musculus. In words: Anti-inflammatory activity against LPS-stimulated acute lung injury C57BL/6 mouse model assessed as decrease in alveolar dilation in right lung at 1 to 10 mg/kg, ip treated for 3 days and on third day administered with LPS at 30 mins post-compound challenge and measured after 12 hrs by Hematoxylin-Eosin staining analysis. Type of experiment: functional, organism-based. The note with it: dose 1-10 mg/kg, time 3.5 day.

Experiment [19] concerns Mus musculus. In words: Anti-inflammatory activity against LPS-stimulated acute lung injury C57BL/6 mouse model assessed as decrease in IL-1 beta expression in right lung at 0.1 to 10 mg/kg, ip treated for 3 days and on third day administered with LPS at 30 mins post-compound challenge and measured after 12 hrs by western blot analysis. Format: functional, organism-based. The note with it: dose 0.1-10 mg/kg, time 3.5 day.

For experiment [20], the system named is Mus musculus. The experiment in a line: Anti-inflammatory activity against LPS-stimulated acute lung injury C57BL/6 mouse model assessed as decrease in caspase-1 expression in right lung at 0.1 to 10 mg/kg, ip treated for 3 days and on third day administered with LPS at 30 mins post-compound challenge and measured after 12 hrs by western blot analysis. Type of experiment: functional, organism-based. The conditions noted are these: dose 0.1-10 mg/kg, time 3.5 day.

SMILES strings stand for the structures. The source made the active and inactive calls. The calls are words filed in the database; no cut-off is given here.

Sequence of NACHT, LRR and PYD domains-containing protein 3 (Mus musculus) (Q8R4B8 whole entry, the tested form may be a part): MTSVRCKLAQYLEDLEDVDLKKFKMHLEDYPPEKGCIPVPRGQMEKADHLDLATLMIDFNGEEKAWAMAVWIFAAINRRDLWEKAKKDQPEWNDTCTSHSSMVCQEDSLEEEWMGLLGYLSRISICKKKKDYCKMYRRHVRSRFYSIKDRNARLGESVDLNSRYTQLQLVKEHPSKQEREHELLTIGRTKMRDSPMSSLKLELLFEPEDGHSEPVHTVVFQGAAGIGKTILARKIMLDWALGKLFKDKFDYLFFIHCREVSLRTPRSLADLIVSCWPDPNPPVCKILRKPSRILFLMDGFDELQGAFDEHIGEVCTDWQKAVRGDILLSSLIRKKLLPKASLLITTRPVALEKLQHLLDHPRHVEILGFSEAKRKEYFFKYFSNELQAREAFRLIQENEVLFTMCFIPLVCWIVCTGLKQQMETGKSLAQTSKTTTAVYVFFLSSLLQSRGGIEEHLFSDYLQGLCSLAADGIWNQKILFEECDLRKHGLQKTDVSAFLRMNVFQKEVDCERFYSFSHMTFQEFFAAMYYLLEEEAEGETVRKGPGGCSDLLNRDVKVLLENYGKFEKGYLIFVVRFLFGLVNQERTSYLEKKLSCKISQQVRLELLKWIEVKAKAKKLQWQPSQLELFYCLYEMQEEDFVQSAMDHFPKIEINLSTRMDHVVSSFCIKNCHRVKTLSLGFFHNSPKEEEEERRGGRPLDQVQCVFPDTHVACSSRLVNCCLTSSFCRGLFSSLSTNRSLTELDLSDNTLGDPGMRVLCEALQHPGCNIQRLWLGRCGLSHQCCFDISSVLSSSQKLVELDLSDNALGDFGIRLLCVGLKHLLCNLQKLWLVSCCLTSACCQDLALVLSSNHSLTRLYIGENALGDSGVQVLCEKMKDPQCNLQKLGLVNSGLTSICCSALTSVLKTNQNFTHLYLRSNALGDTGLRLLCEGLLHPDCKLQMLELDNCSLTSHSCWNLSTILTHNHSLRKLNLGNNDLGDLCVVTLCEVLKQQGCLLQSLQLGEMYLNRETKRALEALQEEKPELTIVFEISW
Sequence of NACHT, LRR and PYD domains-containing protein 3 (Q96P20 whole entry, the tested form may be a part): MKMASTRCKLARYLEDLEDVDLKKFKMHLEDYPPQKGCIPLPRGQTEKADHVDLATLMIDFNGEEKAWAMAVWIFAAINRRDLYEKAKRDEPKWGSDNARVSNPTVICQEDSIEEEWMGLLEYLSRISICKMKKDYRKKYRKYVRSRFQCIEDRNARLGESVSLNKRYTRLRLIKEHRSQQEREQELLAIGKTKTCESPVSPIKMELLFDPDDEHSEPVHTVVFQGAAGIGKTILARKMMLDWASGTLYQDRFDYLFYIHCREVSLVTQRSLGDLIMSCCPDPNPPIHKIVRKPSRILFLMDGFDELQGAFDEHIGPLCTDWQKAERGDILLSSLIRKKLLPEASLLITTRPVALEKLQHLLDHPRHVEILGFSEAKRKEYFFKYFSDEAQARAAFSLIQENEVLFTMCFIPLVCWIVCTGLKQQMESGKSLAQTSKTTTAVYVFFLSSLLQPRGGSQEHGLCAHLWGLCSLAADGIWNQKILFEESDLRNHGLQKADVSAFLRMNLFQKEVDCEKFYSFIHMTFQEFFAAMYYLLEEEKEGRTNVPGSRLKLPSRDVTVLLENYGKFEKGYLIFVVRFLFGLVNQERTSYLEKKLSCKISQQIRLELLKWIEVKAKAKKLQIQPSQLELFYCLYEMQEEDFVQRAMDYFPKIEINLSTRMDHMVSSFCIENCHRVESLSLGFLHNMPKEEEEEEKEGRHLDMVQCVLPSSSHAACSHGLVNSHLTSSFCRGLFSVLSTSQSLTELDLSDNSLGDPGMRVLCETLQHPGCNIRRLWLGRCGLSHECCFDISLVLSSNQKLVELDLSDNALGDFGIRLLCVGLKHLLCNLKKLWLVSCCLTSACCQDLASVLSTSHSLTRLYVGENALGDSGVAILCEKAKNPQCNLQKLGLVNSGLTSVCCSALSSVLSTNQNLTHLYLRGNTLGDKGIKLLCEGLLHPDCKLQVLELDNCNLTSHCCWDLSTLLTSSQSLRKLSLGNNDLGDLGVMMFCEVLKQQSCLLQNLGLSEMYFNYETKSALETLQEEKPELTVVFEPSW

Take `C=C1C(=O)[C@]23[C@H](OC(=O)Nc4ccc(F)cc4)[C@H]1CC[C@H]2[C@]12C=CCC(C)(C)[C@H]1[C@H](O)[C@@]3(O)OC2`: the Kd in [1] was determined as 5.17 µM. Further, the inhibition result in [2] and in [3] was “Dose-Dependent Effect” in each case. For the same compound, the inhibition entry in experiment [4], in [5], in experiment [6], in [7], in experiment [8] and in experiment [10] was “inactive” each time. For the same compound, the inhibition result in experiment [11], in experiment [12] and in [13] was “inactive” in each case. Moreover, the inhibition result in experiment [9] was “Active”. Further, the outcome in [14], in experiment [17], in [18], in [19] and in [20] was Active. For the same compound, the Activity result in experiment [15] and in experiment [16] was “Dose-Dependent Effect” in each case.
